Laboratory results from ChEMBL document CHEMBL2157909, “Design, synthesis, spectral and biological evaluation of novel 1-allyl substituted 2,6-diphenylpiperidin-4-ones and its derivatives of oximes/oxime ethers” (2012).
Converted amounts (≈) assume the structure as drawn.

Legend:
Staphylococcus aureus = experiment: Antibacterial activity against Staphylococcus aureus ATCC 25930 after 24 hrs by two fold serial dilution method; type: functional; conditions: ATCC 25930, 24 h
Bacillus subtilis = experiment: Antibacterial activity against Bacillus subtilis ATCC 530 after 24 hrs by two fold serial dilution method; type: functional; conditions: ATCC 530, 24 h
Salmonella typhi = experiment: Antibacterial activity against Salmonella typhi ATCC 25021 after 24 hrs by two fold serial dilution method; type: functional, Salmonella enterica subsp. enterica serovar Typhi; conditions: Salmonella enterica, ATCC 25021, 24 h
Escherichia coli = experiment: Antibacterial activity against Escherichia coli ATCC 26032 after 24 hrs by two fold serial dilution method; type: functional; conditions: ATCC 26032, 24 h
Pseudomonas = experiment: Antibacterial activity against Pseudomonas ATCC 27853 after 24 hrs by two fold serial dilution method; type: functional; conditions: ATCC 27853, 24 h
Penicillium chrysogenum = experiment: Antifungal activity against Penicillium chrysogenum ATCC 28089 after 72 to 96 hrs by two fold serial dilution method; type: functional
Aspergillus niger = experiment: Antifungal activity against Aspergillus niger ATCC 635 after 72 to 96 hrs by two fold serial dilution method; type: functional
Rhizopus = experiment: Antifungal activity against Rhizopus sp. ATCC 2842 after 72 to 96 hrs by two fold serial dilution method; type: functional
Fusarium oxysporum = experiment: Antifungal activity against Fusarium oxysporum ATCC 48112 after 72 to 96 hrs by two fold serial dilution method; type: functional
Aspergillus flavus = experiment: Antifungal activity against Aspergillus flavus ATCC 525 after 72 to 96 hrs by two fold serial dilution method; type: functional
[1] = Ratio of MIC for Bacillus subtilis ATCC 530 to MIC for Salmonella typhi ATCC 25021; type: functional
[2] = Ratio of MIC for Pseudomonas ATCC 27853 to MIC for Salmonella typhi ATCC 25021; type: functional

Row | Compound | MIC (Staphylococcus aureus) [µg/mL] | MIC (Bacillus subtilis) [µg/mL] | MIC (Salmonella typhi) [µg/mL] | MIC (Escherichia coli) [µg/mL] | MIC (Pseudomonas) [µg/mL] | MIC (Penicillium chrysogenum) [µg/mL] | MIC (Aspergillus niger) [µg/mL] | MIC (Rhizopus) [µg/mL] | MIC (Fusarium oxysporum) [µg/mL] | MIC (Aspergillus flavus) [µg/mL] | Ratio [1] | Ratio [2]
1 | C=CCN1[C@H](c2ccc(C)cc2)C/C(=N\O)[C@@H](C)[C@@H]1c1ccc(C)cc1 (relative stereo) | 200 (≈ 574 µM) | 50 (≈ 143 µM) | 12.5 (≈ 35.9 µM) | 50 (≈ 143 µM) | 25 (≈ 71.7 µM) | 200 (≈ 574 µM) | 12.5 (≈ 35.9 µM) | 100 (≈ 287 µM) | 25 (≈ 71.7 µM) | 50 (≈ 143 µM) | 3 | 2
2 | C=CCN1[C@H](c2ccc(C)cc2)CC(=O)[C@@H](C)[C@@H]1c1ccc(C)cc1 (relative stereo) | 50 (≈ 150 µM) | 100 (≈ 300 µM) | 12.5 (≈ 37.5 µM) | 25 (≈ 75 µM) | 50 (≈ 150 µM) | 25 (≈ 75 µM) | 50 (≈ 150 µM) | 6.25 (≈ 18.7 µM) | 25 (≈ 75 µM) | 50 (≈ 150 µM) | 3 | 2
3 | C=CCN1[C@@H](c2ccccc2)CC(=O)C[C@H]1c1ccccc1 | 6.25 (≈ 21.4 µM) | 100 (≈ 343 µM) | 50 (≈ 172 µM) | 200 (≈ 686 µM) | 25 (≈ 85.8 µM) | 12.5 (≈ 42.9 µM) | 25 (≈ 85.8 µM) | 50 (≈ 172 µM) | 100 (≈ 343 µM) | 100 (≈ 343 µM) |  | 
4 | C=CCN1[C@@H](c2ccccc2)C(C)(C)/C(=N/O)C[C@H]1c1ccccc1 (relative stereo) | 12.5 (≈ 37.4 µM) | 25 (≈ 74.7 µM) | 100 (≈ 299 µM) | 100 (≈ 299 µM) | 50 (≈ 149 µM) | 12.5 (≈ 37.4 µM) | 25 (≈ 74.7 µM) | 25 (≈ 74.7 µM) | 50 (≈ 149 µM) | 25 (≈ 74.7 µM) |  | 
5 | C=CCN1[C@H](c2ccc(OC)cc2)C/C(=N\OCc2ccccc2)[C@@H](C)[C@@H]1c1ccc(OC)cc1 (relative stereo) | 12.5 (≈ 26.6 µM) | 50 (≈ 106 µM) | 25 (≈ 53.1 µM) | 100 (≈ 212 µM) | 6.25 (≈ 13.3 µM) | 50 (≈ 106 µM) | 12.5 (≈ 26.6 µM) | 25 (≈ 53.1 µM) | 6.25 (≈ 13.3 µM) | 100 (≈ 212 µM) |  | 
6 | C=CCN1[C@@H](c2ccccc2)C(C)(C)/C(=N/OCc2ccccc2)C[C@H]1c1ccccc1 (relative stereo) | 50 (≈ 118 µM) | 6.25 (≈ 14.7 µM) | 12.5 (≈ 29.4 µM) | 50 (≈ 118 µM) | 25 (≈ 58.9 µM) | 6.25 (≈ 14.7 µM) | 25 (≈ 58.9 µM) | 50 (≈ 118 µM) | 12.5 (≈ 29.4 µM) | 12.5 (≈ 29.4 µM) |  | 
